Test results reported in patent US9932368B2, “Peptides for the stimulation of collagen formation” (INFINITEC ACTIVOS S.L, priority 2013, dated 2018).
The star is where a group is joined. Palmitoyl = CCCCCCCCCCCCCCCC(=O)*

System: type I collagen
Assay: Determination of collagen biosynthesis (type I collagen ELISA), single peptides and mixture, Example 10
Format: cell-based, human
Settings: 20, 40 and 80 μg/ml, 72 hours; ELISA O.D. 450 nm; vs untreated cells
Experimental: Human Dermal Fibroblasts (ATCC PCS-201-012) were seeded in 96-well plates (3000 cells per well), and left to grow in DMEM containing 5% fetal bovine serum (FBS) for 48 hours. The medium was then replaced with fresh medium containing 0.1% FBS and the corresponding treatment for determining collagen production. After the incubation with each of the peptides (1, 2, and 3) and the mixture of peptides 1-3 synthesized in Example 1, at different concentrations (20, 40 and 80 μg/ml) of each peptide dissolved in DMEM medium in an equivalent proportion of each of them in the mixture (1:1:1 w/w/w), for a period of 72 hours, the same amounts of supernatant were added to a plate coated with human type I collagen antibody (commercial rabbit polyclonal antibodies against human collagen I, code A03C0377, provided by Bluegene Biotech Co. Ltd). The plate was incubated at room temperature for 2 hours to allow the antibody and the produced collagen to react with one another. The plate was then washed three times with PBS containing 0.5% Tween 20 for removing the remaining unbound sample. Next, a human antibody which recognizes the biotin-labeled type I collagen was added for 1 hour. After washing the plate with phosphate buffered saline (PBS) containing 0.5% Tween 20 for removing non-specific interactions, streptavidin-horseradish peroxidase (HRP) (St Louis, Sigma) was added. The amount of collagen in each well was determined using tetramethylbenzidine (TMB) (St Louis, Sigma) as the substrate for the HRP. The reaction between the HRP and TMB was stopped by adding 1 N HCl, and the O.D. (optical density) was measured at 450 nm. The untreated cells represented the negative control of the experiment.

Row | Substance | induction of type I collagen
1 | Palm-RGDGANPNAAG-NH2 (Palmitoyl-RGDGANPNAAG-NH2; SMILES CCCCCCCCCCCCCCCC(=O)N[C@@H](CCCNC(=N)N)C(=O)NCC(=O)N[C@@H](CC(=O)O)C(=O)NCC(=O)N[C@@H](C)C(=O)N[C@@H](CC(N)=O)C(=O)N1CCC[C@H]1C(=O)N[C@@H](CC(N)=O)C(=O)N[C@@H](C)C(=O)N[C@@H](C)C(=O)NCC(N)=O) [Peptide 1] | capable of inducing type I collagen production
2 | Palm-RGDGPQGPQ-NH2 (Palmitoyl-RGDGPQGPQ-NH2; SMILES CCCCCCCCCCCCCCCC(=O)N[C@@H](CCCNC(=N)N)C(=O)NCC(=O)N[C@@H](CC(=O)O)C(=O)NCC(=O)N1CCC[C@H]1C(=O)N[C@@H](CCC(N)=O)C(=O)NCC(=O)N1CCC[C@H]1C(=O)N[C@@H](CCC(N)=O)C(N)=O) [Peptide 2] | capable of inducing type I collagen production
3 | Palm-WRFQWQFEQ-NH2 (Palmitoyl-WRFQWQFEQ-NH2; SMILES CCCCCCCCCCCCCCCC(=O)N[C@@H](Cc1c[nH]c2ccccc12)C(=O)N[C@@H](CCCNC(=N)N)C(=O)N[C@@H](Cc1ccccc1)C(=O)N[C@@H](CCC(N)=O)C(=O)N[C@@H](Cc1c[nH]c2ccccc12)C(=O)N[C@@H](CCC(N)=O)C(=O)N[C@@H](Cc1ccccc1)C(=O)N[C@@H](CCC(=O)O)C(=O)N[C@@H](CCC(N)=O)C(N)=O) [Peptide 3] | capable of inducing type I collagen production
